How the values were obtained:
GCN2 kinase = GCN2 kinase (Homo sapiens (Human), UniProt Q9P2K8); test: Biochemical assay for GCN2 (TR-FRET kinase activity assay); settings: 1 mM ATP, 3-hour incubation
Summary of the method: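 TR-FRET assay with 2 nM GCN2, 130 nM GFP-eIF2α substrate, 0.2 mg/mL E. coli tRNA and 1 mM ATP; compounds (0.5% DMSO) reacted 3 h. Stopped with 20 mM EDTA plus 2 nM Tb-anti-peIF2α (pSer52), 60 min RT; 520/490 ratio converted to % inhibition, IC50 from four-parameter fit.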

[1] = system: H929, RPMI8226, GA-10 and DoHH-2 cells; test: Inhibition of multiple myeloma and B-cell lymphoma cell proliferation; type: cell-based; settings: combination with SOC agents for multiple myeloma or B cell lymphomas
Description: H929, RPMI8226, GA-10, and DoHH-2 cells (catalog #CRL-9068) were obtained from the American Type Culture Collection (ATTC, Manassas, VA). H929 Cells were maintained in RPMI-1640 medium supplemented with 20% heat-inactivated fetal bovine serum (catalog #A3840002, ThermoFisher Scientific, Waltham, MA), 1% Penicillin/Streptomycin/L-Glutamine (catalog #10378016, ThermoFisher Scientific, Waltham, MA), and 0.05 mM 2-mercaptoethanol (catalog #21985-023, ThermoFisher Scientific, Waltham, MA). […]
For cell proliferation assay appropriate number of cells (Forty thousand cells for H929; Twenty thousand cells for RPMI8226, and GA-10; Eight thousand cells for DoHH-2) were seeded per well in 200 μL in respective medium were dispensed into a 96-well black clear bottom plate. […] Plates were read on a Synergy2 or equivalent reader (Biotek, Winooski VT) using an excitation of 540 nm and an emission of 600 nm. At the end of the incubation of DoHH-2, cell viability was determined using CellTiter-Glo® assay (Promega, Madison, WI). Luminescence was measured using EnVision MultiLabel Reader (PerkinElmer, Waltham, MA). Data was analyzed using GraphPad Prism software (GraphPad, San Diego, CA) to calculate IC50 values.

[2] = system: phospho-GCN2 (Thr899) in HCT116 colorectal cancer cells; test: HCT116 amino acid starved (-AA) phospho-GCN2 assay (Western blot); type: cell-based; settings: Homo sapiens, HCT-116, 4 h, read-out: HCT116-AA pGCN2 Western Blot
Summary of the method: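 HCT116 cells switched to amino-acid-free EBSS (10% dialyzed FBS, 5.5 mM glucose, vitamins) with serial compound dilutions for 4 h at 37° C. Lysates Western blotted for phospho-GCN2 (Thr899), total GCN2, ATF4 and beta-actin; IC50 values derived from quantified bands.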

Chain of GCN2 kinase (Q9P2K8 whole entry): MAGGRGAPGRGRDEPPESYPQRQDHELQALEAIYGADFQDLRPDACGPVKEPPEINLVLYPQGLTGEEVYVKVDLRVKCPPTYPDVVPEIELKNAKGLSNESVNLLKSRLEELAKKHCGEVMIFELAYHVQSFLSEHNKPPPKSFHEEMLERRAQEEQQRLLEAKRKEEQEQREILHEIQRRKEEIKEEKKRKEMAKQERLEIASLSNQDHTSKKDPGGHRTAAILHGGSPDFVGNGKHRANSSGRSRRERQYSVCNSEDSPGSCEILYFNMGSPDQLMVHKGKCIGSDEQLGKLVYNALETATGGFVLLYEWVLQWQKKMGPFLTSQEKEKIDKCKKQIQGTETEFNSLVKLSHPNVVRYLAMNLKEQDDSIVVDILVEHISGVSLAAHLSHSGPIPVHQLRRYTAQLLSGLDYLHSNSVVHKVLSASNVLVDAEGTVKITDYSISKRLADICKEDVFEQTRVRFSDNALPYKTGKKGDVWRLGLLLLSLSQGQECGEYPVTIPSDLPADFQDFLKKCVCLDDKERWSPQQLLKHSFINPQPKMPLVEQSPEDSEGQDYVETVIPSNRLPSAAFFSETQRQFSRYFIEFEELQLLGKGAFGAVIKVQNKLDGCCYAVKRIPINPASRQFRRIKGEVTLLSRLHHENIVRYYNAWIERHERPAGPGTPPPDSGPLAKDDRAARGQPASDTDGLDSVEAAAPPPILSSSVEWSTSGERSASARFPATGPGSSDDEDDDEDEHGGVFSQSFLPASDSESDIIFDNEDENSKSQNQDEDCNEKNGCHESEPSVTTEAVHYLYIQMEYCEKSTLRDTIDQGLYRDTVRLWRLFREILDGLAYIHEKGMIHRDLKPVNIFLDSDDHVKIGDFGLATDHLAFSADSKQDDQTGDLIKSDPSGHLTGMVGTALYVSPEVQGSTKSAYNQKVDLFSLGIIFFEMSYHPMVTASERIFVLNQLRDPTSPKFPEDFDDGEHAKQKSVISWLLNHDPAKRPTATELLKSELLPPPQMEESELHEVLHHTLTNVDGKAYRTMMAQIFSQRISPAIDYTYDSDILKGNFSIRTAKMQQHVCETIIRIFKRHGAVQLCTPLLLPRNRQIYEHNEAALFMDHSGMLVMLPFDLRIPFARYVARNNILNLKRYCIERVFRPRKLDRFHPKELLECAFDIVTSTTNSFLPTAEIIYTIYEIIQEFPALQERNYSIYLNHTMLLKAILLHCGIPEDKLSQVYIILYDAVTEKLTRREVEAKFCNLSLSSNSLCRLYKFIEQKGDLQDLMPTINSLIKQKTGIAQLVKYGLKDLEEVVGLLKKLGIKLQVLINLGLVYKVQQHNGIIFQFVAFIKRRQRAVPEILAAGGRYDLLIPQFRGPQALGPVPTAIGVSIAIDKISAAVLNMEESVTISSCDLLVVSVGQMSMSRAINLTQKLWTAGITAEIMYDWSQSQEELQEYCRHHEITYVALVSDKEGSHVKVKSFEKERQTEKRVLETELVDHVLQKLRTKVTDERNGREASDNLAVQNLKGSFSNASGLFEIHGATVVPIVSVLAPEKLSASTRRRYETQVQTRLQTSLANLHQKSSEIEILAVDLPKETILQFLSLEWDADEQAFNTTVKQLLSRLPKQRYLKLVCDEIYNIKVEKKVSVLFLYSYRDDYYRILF

For `CNc1ncc2cc(-c3cccc(NS(=O)(=O)c4cc(Cl)cnc4OC)c3F)c(NC)nc2n1` [Compound 16], the IC50 (GCN2 kinase) was at most 100 nM, the “inhibition of cell proliferation in combination with standard of care agents” value [1] was “additivity or synergy” and the IC50 [2] was at most 100 nM.

— patent publication US11912668B2, “GCN2 and perk kinase inhibitors and methods of use thereof” (Deciphera Pharmaceuticals, LLC, priority 2020, dated 2024)
